No end group written: not given here.
What was measured:
[1] = biological target: AKT (Homo sapiens, UniProt P31749); conditions: read-out: Ki, competitive inhibition of histone H2B phosphorylation by AKT; cited from earlier work
[2] = biological target: T1, VIPR2 (Homo sapiens, UniProt P41587); experiment: cAMP Hunter cell line, HitHunter cAMP XS+ assay, agonist mode; format: cell-based
T1 sequence (P41587 24-438): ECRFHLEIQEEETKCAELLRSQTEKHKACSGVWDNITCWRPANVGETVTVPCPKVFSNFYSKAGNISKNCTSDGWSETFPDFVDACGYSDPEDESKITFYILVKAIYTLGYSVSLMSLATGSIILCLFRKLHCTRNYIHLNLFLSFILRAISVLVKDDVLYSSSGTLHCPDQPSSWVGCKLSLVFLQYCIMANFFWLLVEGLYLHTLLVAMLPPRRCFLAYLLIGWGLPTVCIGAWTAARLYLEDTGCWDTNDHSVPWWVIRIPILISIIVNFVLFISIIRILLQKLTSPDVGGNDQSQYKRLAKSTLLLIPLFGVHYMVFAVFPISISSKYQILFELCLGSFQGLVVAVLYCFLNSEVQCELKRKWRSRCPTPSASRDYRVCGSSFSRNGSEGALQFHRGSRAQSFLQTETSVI
Method: (§1) Once it was established that the cells were healthy and growing normally, cells were passaged from flasks using cell dissociation reagent buffer and seeded into white walled clear bottom 384-well microplates for compound profiling. For profiling, cells were seeded at a density of 10,000 cells per well in a total volume of 20 μL and were allowed to adhere and recover overnight prior to compound addition. cAMP modulation was determined using the DiscoveRx HitHunter cAMP XS+ assay.
(§2) For profiling compound in agonist mode, the cells were incubated in the presence of compound at 37° C. for 30 minutes. […] After appropriate compound incubation, assay signal was generated through incubation with DiscoverX lysis cocktail according to the manufacturers standard protocol. Dose curves were plotted using GraphPad Prism or Activity Base. Percentage activity is calculated using the following formula: % Activity=100%×(mean RLU of test sample−mean RLU of vehicle control)/(mean RLU of MAX control−mean RLU of vehicle control).

[3] = biological target: T2, VIPR1 (Homo sapiens, UniProt P32241); experiment: as above; format: cell-based; conditions: for % Activity / Mean RLU: VIPR1 cells, cAMP
T2 sequence (P32241 31-457): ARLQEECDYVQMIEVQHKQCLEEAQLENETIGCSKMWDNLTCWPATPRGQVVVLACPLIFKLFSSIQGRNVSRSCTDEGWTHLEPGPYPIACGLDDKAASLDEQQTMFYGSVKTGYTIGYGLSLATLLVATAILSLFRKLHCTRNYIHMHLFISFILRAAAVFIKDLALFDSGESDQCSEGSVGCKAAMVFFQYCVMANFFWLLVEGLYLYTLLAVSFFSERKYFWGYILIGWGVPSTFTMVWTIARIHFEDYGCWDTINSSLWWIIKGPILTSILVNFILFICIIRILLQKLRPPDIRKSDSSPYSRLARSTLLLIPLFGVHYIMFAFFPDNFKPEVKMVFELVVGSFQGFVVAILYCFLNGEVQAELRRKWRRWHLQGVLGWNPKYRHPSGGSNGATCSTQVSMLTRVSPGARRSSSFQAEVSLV
Method: as §1, §2

[4] = biological target: T3, CRF2α (Homo sapiens, UniProt Q13324); conditions: cited from earlier work
T3 sequence (Q13324 1-411): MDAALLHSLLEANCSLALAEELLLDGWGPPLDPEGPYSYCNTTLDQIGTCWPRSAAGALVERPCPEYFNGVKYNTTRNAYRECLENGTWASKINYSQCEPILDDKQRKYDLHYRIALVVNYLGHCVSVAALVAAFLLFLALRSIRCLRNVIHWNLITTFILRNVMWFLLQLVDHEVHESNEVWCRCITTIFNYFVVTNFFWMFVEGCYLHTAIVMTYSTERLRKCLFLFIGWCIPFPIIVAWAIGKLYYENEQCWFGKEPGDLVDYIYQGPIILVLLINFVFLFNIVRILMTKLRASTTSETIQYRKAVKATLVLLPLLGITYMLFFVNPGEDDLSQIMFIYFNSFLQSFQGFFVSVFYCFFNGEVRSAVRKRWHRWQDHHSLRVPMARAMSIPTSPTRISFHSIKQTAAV

[5] = biological target: T4, CRF2β (Homo sapiens, UniProt Q13324); conditions: cited from earlier work
T4 sequence (Q13324 1-438 isoform Q13324-2): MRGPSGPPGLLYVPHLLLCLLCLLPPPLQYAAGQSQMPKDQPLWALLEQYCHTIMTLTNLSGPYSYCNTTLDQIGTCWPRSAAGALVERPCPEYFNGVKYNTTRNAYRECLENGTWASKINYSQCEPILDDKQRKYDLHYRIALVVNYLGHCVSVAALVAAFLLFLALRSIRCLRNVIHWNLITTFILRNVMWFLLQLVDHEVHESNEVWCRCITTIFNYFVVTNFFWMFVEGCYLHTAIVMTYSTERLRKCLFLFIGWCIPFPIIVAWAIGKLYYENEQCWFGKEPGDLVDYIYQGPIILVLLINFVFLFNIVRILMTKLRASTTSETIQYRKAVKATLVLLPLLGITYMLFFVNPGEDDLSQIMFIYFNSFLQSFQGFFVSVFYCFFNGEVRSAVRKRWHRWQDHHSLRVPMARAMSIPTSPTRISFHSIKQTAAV

AKT, sequence (P31749 whole entry): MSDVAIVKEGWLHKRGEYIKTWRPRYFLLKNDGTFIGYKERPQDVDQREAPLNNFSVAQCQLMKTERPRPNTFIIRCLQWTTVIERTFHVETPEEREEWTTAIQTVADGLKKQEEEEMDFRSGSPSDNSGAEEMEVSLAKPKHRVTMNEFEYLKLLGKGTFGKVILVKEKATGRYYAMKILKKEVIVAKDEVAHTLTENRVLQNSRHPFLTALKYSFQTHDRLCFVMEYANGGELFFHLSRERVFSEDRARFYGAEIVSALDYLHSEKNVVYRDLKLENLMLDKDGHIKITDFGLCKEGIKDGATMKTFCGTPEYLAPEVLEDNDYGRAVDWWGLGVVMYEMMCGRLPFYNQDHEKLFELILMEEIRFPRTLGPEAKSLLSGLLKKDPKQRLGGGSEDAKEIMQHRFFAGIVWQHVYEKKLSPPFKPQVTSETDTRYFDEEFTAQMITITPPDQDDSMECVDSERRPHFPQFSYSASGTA

For “5-TMR-ARKRERTYSFGHHA ({5‑TMR}-ARKRERTYSFGHHA)”, the Ki [1] is listed as 12000 nM.
In the case of `CC[C@H](C)[C@H](NC(=O)[C@H]1CCC[C@@H]1NC(=O)[C@H](CC(N)=O)NC(=O)[C@H](CC(C)C)NC(=O)[C@H](Cc1ccc(O)cc1)NC(=O)[C@H]1CNC[C@@H]1NC(=O)[C@H](CCCCN)NC(=O)[C@@H](NC(=O)[C@H]1CCC[C@@H]1NC(=O)[C@H](CC(C)C)NC(=O)[C@H](CCC(N)=O)NC(=O)[C@H](CCCCN)NC(=O)[C@H]1CNC[C@@H]1NC(=O)[C@H](CC(C)C)NC(=O)[C@H](CCCNC(=N)N)NC(=O)[C@H]1CCC[C@@H]1NC(=O)[C@H](Cc1ccc(O)cc1)NC(=O)[C@H](CC(N)=O)NC(=O)[C@H](CC(=O)O)NC(=O)[C@@H](NC(=O)[C@H](Cc1ccccc1)NC(=O)[C@@H](NC(=O)[C@H](C)NC(=O)[C@H](CC(=O)O)NC(=O)[C@H](CO)NC(=O)[C@@H](N)Cc1c[nH]cn1)C(C)C)[C@@H](C)O)C(C)C)C(=O)N[C@@H](CC(C)C)C(=O)N[C@@H](CC(N)=O)C(N)=O` [Compound 8, HSDAVFTDNYXRLZKQLXVKZYLNXILN], the “interaction with VIPR2” value [2] is reported as “does not interact substantially with VIPR2”, the “activation of VIPR2” value ([2]; FIG. 3) is reported as “not activate VIPR2” and the “% Activity” value ([3]; 1.03E−07 M compound) is reported as 91.7%. The “% Activity” value ([3]; 1.03E−08 M compound) was 1.5%, the “Mean RLU” value ([3]; 1.03E−08 M compound) was 13700.0 RLU and the “% Activity” value ([3]; 1.03E−09 M compound) was −1.4%. The “Mean RLU” value ([3]; 1.03E−09 M compound) was 13500.0 RLU, the “% Activity” value ([3]; 1.03E−10 M compound) was −2.9% and the “Mean RLU” value ([3]; 1.03E−10 M compound) was 9960.0 RLU. For the same compound, the “% Activity” value ([3]; 1.03E−11 M compound) was −1.5%, the “Mean RLU” value ([3]; 1.03E−11 M compound) was 10500.0 RLU and the “% Activity” value ([3]; 1.03E−12 M compound) was −1.7%. The “Mean RLU” value ([3]; 1.03E−12 M compound) was 10340.0 RLU, the “% Activity” value ([3]; 5.03E−07 M compound) was 99.5% and the “% Activity” value ([3]; 5.03E−08 M compound) was 83.9%. For the same compound, the “% Activity” value ([3]; 5.03E−09 M compound) was 1.2%, the “Mean RLU” value ([3]; 5.03E−09 M compound) was 13200.0 RLU and the “% Activity” value ([3]; 5.03E−10 M compound) was −2.2%. For the same compound, the “Mean RLU” value ([3]; 5.03E−10 M compound) was 9520.0 RLU and the “activation of VIPR1” value ([3]; FIG. 3) was “fully activate VIPR1”.
For Astressin, the Ki [4] is given as 1.5 nM and the Ki [5] is given as 1 nM.

Source: patent US9782454B2 (LONGEVITY BIOTECH, INC., priority 2010, dated 2017)
